The values that follow come from patent US8653048B2 (Sanlugen Pharmatech Ltd., priority 2009, dated 2014).

In data set [1] the test system is A549: a human lung cancer cell line. Kind of data set: MTT analytical method, A549 cells. In kind it is cell-based. Particulars: 72 h. From the text:
(§1) MTT analytical method was used to test the prodrugs for various tumor cells.
(§2) • 1) Cell lines: NCI-H460, A549, LOVO, HT-29, MDA-MB-231, SGC7901, HepG2 or BEL-7402 cell lines. Culture: adherent culturing in D-MEM (Hyclone, Inc.) containing 10% fetal calf serum. The initial cell concentration was about 3×10^5 /mL. The cell was passaged by 1:3 dilution in every 2-3 days. On the day before the test, the cell was passaged by 1:2 dilution, the cell concentration for the test was 5-10×10^5 /mL. • 2) Dissolution and dilution of compounds: according to the weight and molecular weight of the drugs provided, 100-200 μL of DMSO was added. Then normal saline was added to make the final diluted concentration of the drugs be 5 mM (Note that the final concentration of DMSO should not be more than 10%). • 3) D-MEM or RPMI 1640 cell culture medium, Gibco, Inc. • 4) Fetal calf serum Hyclone, Inc. • 5) Cell dissociation buffer, 0.25% Trypsin+0.02% EDTA. • 6) MTT solution, MTT Powder (Sigma) were dissolved in PBS buffer solution to make a solution of 5 mg/mL. The solution was filtered by a 0.22 μm micropore membrane and stored at −20° C. • 7) PBS buffer solution. • 8) 10% acidified SDS, 0.01N HCl. • 9) Centrifuge tubes, haustorial tubes etc. (BD, Inc.); 96-well plates (Costatr, Inc.) Procedures: • 1) Cell inoculation: Cells grown for 24 hours after passage, which cells were in good growth state, were used. The cells were harvested by the routine method. The cell concentration was adjust with a fresh culture solution to 2×10^5/mL (for adherent cells)-3×10^5/mL (for suspension cells). The adherent cells were inoculated at 100 μL/well and then cultivated in an incubator with 5% CO2 at 37° C. for 24 h. Thereafter the used culture solution was removed and 95 μL/well of fresh culture solution was added. The suspension cells were inoculated at 95 μL/well directly. • 2) Drugs treatment: 9 concentration grades were designed for every drug, and every concentration had 3 wells. The control group had 5 wells. The control group was tested simultaneously in each test. The final concentrations of a drug added were […], and 5 μL normal saline was added to the control group. • 3) Cell culture and detection: the cells were cultured in an incubator with 5% CO2 at 37° C. for 72 h after the drug was added, then 10 μL MTT was added to each well and the culture was continued for 4 h. 100 μL of 10% SDS (containing 0.01N HCl) was added to each well. After 24 h, the absorbance (A) of each well was determined by Bio-rad 680 ELISA with the detection wavelength of 570 nm and the reference wavelength of 630 nm. Calculation:
(§3) First, the absorbance (A) of each well was averaged (removing any data with big difference). […] A0 was the mean absorbance of the control wells. The effect curve of the drug concentration was drawn using EXCEL software and the drug concentration for 50% cell survival was calculated according to an appropriate computing methods.

In data set [2] the test system is HT29: a human colon cancer cell line. Kind of data set: MTT analytical method, HT29 cells. In kind it is cell-based. Particulars: HT-29, 72 h.
Description: as §1, §2, §3

Data set [3] deals with Bel7402: a human liver cancer cell line. Kind of data set: MTT analytical method, Bel7402 cells. Particulars: Bel-7402, 72 h. It is filed as cell-based.
Description: as §1, §2, §3
On the technique in general: Tetrazolium dyes change colour on reduction, which living cells bring about.

Data set [4] relates to H460 cells, a human lung cancer cell line, inoculated in nude mice. Kind of data set: H460 tumor in nude mice, oral administration of SL-01. In kind it is in vivo, Balb/c female nude mice. Particulars: for Mean Volume of Tumor: Ftorafur 120 mg/kg gastric gavage. The method, then: 1. […] Suspension formulation was prepared using 2.5% starch for intragastric administration. […] In the test, it was dissolved in normal saline and filtered with microfiltration membrane and administrated by tail vein injection. Positive control drug: Ftorafur (FT-207) produced by Qilu Pharmaceutical Co. Ltd., oral formulation.
2. Experimental animals: 50 Balb/c female nude mice at 4-5 weeks old, purchased from Peking University Health Science Center.
1. Culture of tumor cells: H460 cells were cultured in an incubator with 5% CO2 at 37° C. using RPMI-1640 nutrient solution containing 10% fetal calf serum. The cells were passaged through routine method.
2.2 Method of inoculating tumor cells in nude mice: cells were collected when they grew to about […] in culture flasks. Cells were washed twice with PBS before they were digested, then 1.5 mL of digestion solution juices was added into every bottle. They were observed under a microscope and the digestion was terminated after the cells were shed. Cell suspension was collected into 50 mL of centrifugal tube and centrifuged and washed twice with PBS. It was counted and suspended with 10 mL of normal saline to get the tumor cell suspension of inoculated nude mice. The tumor cells (1×10^7/0.2 mL) were inoculated in the left front armpits of mice. The tumor growth was observed after the inoculation.
4. Evaluation protocols for drug treating effect: these mice were weighed before drug administration and every week thereafter. The long tumor pathline (a) and the short tumor pathline (b) were measured at the same time. The formula for calculating the tumor volume is V=(a×b^2)/2. Mice were euthanized after drug administration for 3 weeks. The tumor was taken out and weighed. […] W was the tumor weight of the treatment group.

Usually IC50 stands for the midpoint of a concentration-inhibition curve. A higher IC50 goes with lower potency. `CCCCCCCCCCCOC(=O)c1cc(C(=O)Nc2ccn([C@@H]3O[C@H](CO)[C@@H](O)C3(F)F)c(=O)n2)[nH]n1` [Compound 30, Undecyl-5-((1-((2R,4R,5R)-3,3-difluoro-4-hydroxy-5-(hydroxymethyl)-tetrahydrofuran-2-yl)-2-oxo-1,2-dihydropyrimidin-4-yl)carbamoyl)-1H-pyrazole-3-carboxylate]: the IC50 in data set [1] amounted to 14 µM; in data set [2], 4 µM; in data set [3] it was 16 µM.

For the molecule `CCCCCCCCCCCOC(=O)c1ccncc1C(=O)Nc1ccn([C@@H]2O[C@H](CO)[C@@H](O)C2(F)F)c(=O)n1` [Compound 22, Undecyl-3-((1-((2R,4R,5R)-3,3-difluoro-4-hydroxy-5-(hydroxymethyl)-tetrahydrofuran-2-yl)-2-oxo-1,2-dihydropyrimidin-4-yl)carbamoyl)isonicotinate], the IC50 in data set [1] worked out at 8 µM; in data set [2], 30 µM; in data set [3], 16 µM.

For the molecule `CCCCCCCCCCCOC(=O)c1ccc(C(=O)Nc2ccn([C@@H]3O[C@H](CO)[C@@H](O)C3(F)F)c(=O)n2)s1` [Compound 21, Undecyl-5-((1-((2R,4R,5R)-3,3-difluoro-4-hydroxy-5-(hydroxymethyl)-tetrahydrofuran-2-yl)-2-oxo-1,2-dihydropyrimidin-4-yl)carbamoyl)thiophene-2-carboxylate], the IC50 in data set [2] is 24 µM; in data set [3], 43 µM.

For `CCCCCCCCCCCCOC(=O)c1ccccc1C(=O)Nc1ccn([C@@H]2O[C@H](CO)[C@@H](O)C2(F)F)c(=O)n1` [Compound 1, Dodecyl-2-((1-((2R,4R,5R)-3,3-difluoro-4-hydroxy-5-(hydroxymethyl)-tetrahydrofuran-2-yl)-2-oxo-1,2-dihydropyrimidin-4-yl)carbamoyl)benzoate], the 50% inhibitory concentration (IC50) in data set [1] came to 23 µM; in data set [2], 13 µM; in data set [3], 20 µM.

Turning to `CCCCCCCCCCCCOC(=O)c1ccncc1C(=O)Nc1ccn([C@@H]2O[C@H](CO)[C@@H](O)C2(F)F)c(=O)n1` [Compound 24, Dodecyl-3-((1-((2R,4R,5R)-3,3-difluoro-4-hydroxy-5-(hydroxymethyl)-tetrahydrofuran-2-yl)-2-oxo-1,2-dihydropyrimidin-4-yl)carbamoyl)isonicotinate], the IC50 in data set [1] was 8 µM; in data set [2], 8 µM; in data set [3], 16 µM.

Turning to `CCCCCCCCCCCOC(=O)c1cccc(C(=O)Nc2ccn([C@@H]3O[C@H](CO)[C@@H](O)C3(F)F)c(=O)n2)c1` [Compound 7, Undecyl-3-((1-((2R,4R,5R)-3,3-difluoro-4-hydroxy-5-(hydroxymethyl)-tetrahydrofuran-2-yl)-2-oxo-1,2-dihydropyrimidin-4-yl)carbamoyl)benzoate], the IC50 in data set [2] was determined as 80 µM; in data set [3], 125 µM.

Regarding `CCCCCCCCCCCOC(=O)c1cccc(C(=O)Nc2ccn([C@@H]3O[C@H](CO)[C@@H](O)C3(F)F)c(=O)n2)n1` [Compound 19, Undecyl-6-((1-((2R,4R,5R)-3,3-difluoro-4-hydroxy-5-(hydroxymethyl)-tetrahydrofuran-2-yl)-2-oxo-1,2-dihydropyrimidin-4-yl)carbamoyl)picolinate], the IC50 was 25 µM in data set [2] and 46 µM in data set [3].

On to `CCCCCCCCCCCOC(=O)c1ccccc1C(=O)Nc1ccn([C@@H]2O[C@H](CO)[C@@H](O)C2(F)F)c(=O)n1` [Compound 2, Undecyl-2-((1-((2R,4R,5R)-3,3-difluoro-4-hydroxy-5-(hydroxymethyl)-tetrahydrofuran-2-yl)-2-oxo-1,2-dihydropyrimidin-4-yl)carbamoyl)benzoate], for which the results for the IC50 in data set [2] and in data set [3] were greater than 200 µM and 162 µM, respectively.

For `CCCCCCCCCCCCOC(=O)c1ncccc1C(=O)Nc1ccn([C@@H]2O[C@H](CO)[C@@H](O)C2(F)F)c(=O)n1` [Compound 12, Dodecyl-3-((1-((2R,4R,5R)-3,3-difluoro-4-hydroxy-5-(hydroxymethyl)-tetrahydrofuran-2-yl)-2-oxo-1,2-dihydropyrimidin-4-yl)carbamoyl)picolinate], the values for the IC50 in data set [2] and in data set [3] were 20 µM and 60 µM, respectively.

For `CCCCCCCCCCCOC(=O)C1CCCCC1C(=O)Nc1ccn([C@@H]2O[C@H](CO)[C@@H](O)C2(F)F)c(=O)n1` (stereo partly drawn) [Compound 36, Undecyl-2-((1-((2R,4R,5R)-3,3-difluoro-4-hydroxy-5-(hydroxymethyl)-tetrahydrofuran-2-yl)-2-oxo-1,2-dihydropyrimidin-4-yl)carbamoyl)cyclohexanecarboxylate], the IC50 in data set [2] and in data set [3] was greater than 200 µM throughout.

In the case of `CCCCCCCCCCOC(=O)c1cccc(C(=O)Nc2ccn([C@@H]3O[C@H](CO)[C@@H](O)C3(F)F)c(=O)n2)c1` [Compound 6, Decyl-3-((1-((2R,4R,5R)-3,3-difluoro-4-hydroxy-5-(hydroxymethyl)-tetrahydrofuran-2-yl)-2-oxo-1,2-dihydropyrimidin-4-yl)carbamoyl)benzoate], the IC50 in data set [2] is 13 µM; in data set [3], 30 µM.

Regarding `CCCCCCCCCCCCCCCCOC(=O)c1ccccc1C(=O)Nc1ccn([C@@H]2O[C@H](CO)[C@@H](O)C2(F)F)c(=O)n1` [Compound 3, Hexadecyl-2-((1-((2R,4R,5R)-3,3-difluoro-4-hydroxy-5-(hydroxymethyl)-tetrahydrofuran-2-yl)-2-oxo-1,2-dihydropyrimidin-4-yl)carbamoyl)benzoate], the IC50 worked out at 10 µM in data set [2] and 60 µM in data set [3].

On to `O=c1[nH]c(=O)n(C2CCCO2)cc1F` (stereo not drawn) [FT-207, Ftorafur, reference compound], for which the “Mean Volume of Tumor” value was 756.7 mm^3 in data set [4] (day 7), 1347.0 mm^3 in data set [4] (day 14), 1526.3 mm^3 in data set [4] (day 18) and 1779.4 mm^3 in data set [4] (day 22). The “Inhibition ratio (tumor weight)” value in data set [4] (Positive control (Ftorafur 120 mg/kg gavage)) was found to be 38.5%. Besides, the “Mean Weight of Nude Mice” value in data set [4] (Positive control (Ftorafur 120 mg/kg gavage), day 0) stood at 19.3 g; in data set [4] (Positive control (Ftorafur 120 mg/kg gavage), day 7), 19.5 g; in data set [4] (Positive control (Ftorafur 120 mg/kg gavage), day 14), 19.8 g; in data set [4] (Positive control (Ftorafur 120 mg/kg gavage), day 22), 19.7 g. In addition, the “Tumor Weight, Average Value” in data set [4] (Positive control (Ftorafur 120 mg/kg gavage), end of the experiment) was 1.26 g. Further, the “efficacy by t-test, in words” value in data set [4] (positive control group (Ftorafur 120 mg/kg gavage)) is given as “significant efficacy”.
